Laboratory results as given in patent US9884850B2, “Pyrimidine hydroxy amide compounds as HDAC6 selective inhibitors” (Acetylon Pharmaceuticals, Inc., priority 2014, dated 2018).
Entries after “also recorded” stand apart in the source; their conditions may differ.

System: taxol induced neuropathic pain model in rats
Experiment: Taxol induced neuropathic pain study in rats (Von Frey testing)
Format: in vivo, rat
Settings: taxol treated rats, 1, 3, 10 mg/kg PO b.i.d.
Protocol: This study included a histology endpoint in addition to the von Frey testing for paw sensitivity.
Neuropathic pain is induced by a 0.5 ml/kg injection of Taxol (2 mg/kg) administered IP on days 0-12. The development of neuropathic pain is confirmed by measuring mechanical allodynia (Von Frey test) on study day 13.
Allodynic response to tactile stimulation is assessed using the Von Frey apparatus (Touch Test®).
The rat will be placed in an enclosure and positioned on a metal mesh surface, but allowed to move freely. The rats' cabins are covered with red cellophane to diminish environmental disturbances. The test begins after a cessation of exploratory behavior. The set of Von Frey monofilaments provide an approximate logarithmic scale of actual force and a linear scale of perceived intensity.
The operating principle: when the tip of a fiber of given length and diameter is pressed against the skin at right angles, the force of application increases as long as the researcher continues to advance the probe until the fiber bends. After the fiber bends, the probe continues to advance, causing the fiber to bend more, but without additional force being applied. […] The Touch Test™ Sensory Evaluator can be used on the plantar surfaces of the rat's foot. The animal indicates sensation by pulling back its paw. […]

SMILES: O=C(NO)c1cnc(NC2(c3ccccc3)CCC(F)(F)CC2)nc1 [Compound 003]
- Effect on nociception / tactile allodynia (Von Frey): completely reversed nociception; also recorded: reduced tactile allodynia
